Here are results for three compounds from patent publication US8846110B2, “Polymeric systems for the delivery of anticancer drugs” (Rexahn Pharmaceuticals, Inc., priority 2009, dated 2014).

One experiment concerns MDA-MB-231 (breast). As to the kind of experiment: In vitro cell proliferation (SRB) assay, MDA-MB-231. In kind it is cell-based. The settings on record: Homo sapiens, drug equivalent, 96 hours incubation, SRB method. The method, then:
(§1) Cancer cell lines to determine the effect of polymer-drug conjugates were obtained from the following sources: Human MDA-MB-231 (breast), HCT116 (colon) and PANC-1 (pancreas), from the American Type Culture Collection (ATCC) (Manassas, Va.). UMRC2 (kidney) from United States National Cancer Institute (Bethesda, Md.). Cells were maintained in Dulbecco's modified Eagle's medium (“DMEM”, Invitrogen) supplemented with 10% FBS, P/S and 10 mM HEPES. All cells were incubated at 37° C. under humidified 5% CO2.
(§2) The growth inhibition assay of polymer-drug conjugates against human cancer cell lines was performed using the Sulforhodamine B (“SRB”) method (Skehan et al., J. National Cancer Institute, 82: 1107-1112 (1990)). […] After 5 minutes agitation in 10 mM Tris solution, the absorbance of each well was measured at 530 nm using Benchmark Plus Microplate reader (Bio-Rad Laboratories, Hercules, Calif.). The absorbance value provides a direct measure of the number of live cells post-treatment with copolymer-drug conjugates.
(§3) To translate the OD530 values into the number of live cells in each well, the OD530 values were compared to those on standard OD530—versus—cell number curves generated for each cell line. The percent survival was calculated using the formula: % Survival=live cell number [test]/live cell number [control]×100
(§4) The IC50 values were calculated by non-linear regression analysis.
(Sulforhodamine B stains cellular protein and so reports cell mass.)

The test system of a further experiment is HCT116 (colon). As to the kind of experiment: In vitro cell proliferation (SRB) assay, HCT116. It counts as cell-based. The settings on record: Homo sapiens, HCT-116; drug equivalent; 96 hours incubation; SRB method. As for the experimental part:
as §1, §2, §3, §4

For another experiment, the system named is Caki-1. As to the kind of experiment: In vitro cell proliferation (SRB) assay, Caki-1. It counts as cell-based. The settings on record: Homo sapiens, drug equivalent, 96 hours incubation, SRB method.
The target of experiment [1] is glycosylphosphatidylinositol-linked folate receptor (FR). The settings on record: high affinity folate receptor; cited from earlier work.
Another experiment addresses T1, reduced folate carrier (Homo sapiens, UniProt P41440).
T1 sequence (P41440 1-591): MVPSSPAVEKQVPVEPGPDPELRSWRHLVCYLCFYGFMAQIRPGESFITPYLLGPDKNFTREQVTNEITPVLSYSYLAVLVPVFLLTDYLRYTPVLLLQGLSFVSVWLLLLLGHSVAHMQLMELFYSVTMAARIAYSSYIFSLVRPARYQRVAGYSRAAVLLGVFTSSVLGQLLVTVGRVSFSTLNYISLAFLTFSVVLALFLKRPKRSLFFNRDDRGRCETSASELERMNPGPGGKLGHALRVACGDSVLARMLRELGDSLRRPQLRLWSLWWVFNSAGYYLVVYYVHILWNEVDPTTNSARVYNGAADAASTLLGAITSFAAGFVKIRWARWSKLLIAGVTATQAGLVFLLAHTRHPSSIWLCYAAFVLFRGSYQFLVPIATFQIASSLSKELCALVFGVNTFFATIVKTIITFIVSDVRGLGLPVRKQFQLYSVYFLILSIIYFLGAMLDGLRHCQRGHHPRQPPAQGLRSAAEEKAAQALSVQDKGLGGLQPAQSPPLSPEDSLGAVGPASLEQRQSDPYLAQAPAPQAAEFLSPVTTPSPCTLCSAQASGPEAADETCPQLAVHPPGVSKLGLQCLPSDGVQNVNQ
The settings on record: low affinity reduced folate carrier, cellular uptake; cited from earlier work.

The target in another experiment is mucin-1 (Homo sapiens, UniProt P15941). The settings on record: specific ligand of mucin-1; cited from earlier work.
Chain of mucin-1 (P15941 24-1255): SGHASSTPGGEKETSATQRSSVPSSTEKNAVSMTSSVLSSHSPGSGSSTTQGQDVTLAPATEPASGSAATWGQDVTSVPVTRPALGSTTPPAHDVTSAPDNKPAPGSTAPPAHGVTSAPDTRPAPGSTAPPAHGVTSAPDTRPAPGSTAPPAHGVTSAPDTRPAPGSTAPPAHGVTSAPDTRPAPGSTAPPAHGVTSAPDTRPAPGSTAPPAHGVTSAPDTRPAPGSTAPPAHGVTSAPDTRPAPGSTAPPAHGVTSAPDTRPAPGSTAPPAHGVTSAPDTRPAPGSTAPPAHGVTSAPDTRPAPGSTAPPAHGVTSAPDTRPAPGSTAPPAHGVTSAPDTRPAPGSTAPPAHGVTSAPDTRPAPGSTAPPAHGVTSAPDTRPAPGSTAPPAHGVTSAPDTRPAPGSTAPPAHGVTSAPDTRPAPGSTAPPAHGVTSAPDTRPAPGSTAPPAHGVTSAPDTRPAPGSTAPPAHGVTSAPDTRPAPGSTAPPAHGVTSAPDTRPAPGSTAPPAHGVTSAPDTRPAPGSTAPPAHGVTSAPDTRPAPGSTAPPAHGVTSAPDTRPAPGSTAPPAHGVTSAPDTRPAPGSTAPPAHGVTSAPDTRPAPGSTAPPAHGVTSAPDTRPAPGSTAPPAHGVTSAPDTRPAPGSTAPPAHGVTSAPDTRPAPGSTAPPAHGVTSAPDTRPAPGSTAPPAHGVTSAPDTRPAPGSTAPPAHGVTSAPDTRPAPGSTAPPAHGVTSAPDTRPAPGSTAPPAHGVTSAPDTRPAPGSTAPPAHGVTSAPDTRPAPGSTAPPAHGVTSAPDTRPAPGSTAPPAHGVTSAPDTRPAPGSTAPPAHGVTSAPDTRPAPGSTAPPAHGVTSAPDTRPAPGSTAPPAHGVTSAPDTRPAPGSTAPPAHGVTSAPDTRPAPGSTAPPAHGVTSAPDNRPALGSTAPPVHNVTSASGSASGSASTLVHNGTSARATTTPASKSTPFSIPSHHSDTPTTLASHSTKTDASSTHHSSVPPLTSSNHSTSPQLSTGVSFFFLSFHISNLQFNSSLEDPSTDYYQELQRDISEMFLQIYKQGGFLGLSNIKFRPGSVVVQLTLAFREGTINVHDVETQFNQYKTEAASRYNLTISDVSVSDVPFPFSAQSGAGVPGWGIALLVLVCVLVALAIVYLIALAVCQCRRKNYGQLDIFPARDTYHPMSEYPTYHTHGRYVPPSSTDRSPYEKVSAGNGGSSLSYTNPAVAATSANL

Broadly, the IC50 is the concentration that inhibits the measured activity by half. Consider `CC(=O)O[C@@]12CO[C@@H]1C[C@H](O)[C@@]1(C)C(=O)[C@H](O)C3=C(C)[C@@H](OC(=O)[C@H](O)[C@@H](NC(=O)OC(C)(C)C)c4ccccc4)C[C@@](O)([C@@H](OC(=O)c4ccccc4)[C@H]21)C3(C)C` [Docetaxel, docetaxel], for which the figures for the IC50 with MDA-MB-231 (breast), in the experiment with HCT116 (colon) and in the experiment with Caki-1 were 0.0015 µM, 0.00058 µM and 0.001 µM, respectively.
The term Kd denotes a measure of binding affinity in units of concentration. By Km is commonly meant the concentration of substrate that gives half-maximal velocity. On to `Nc1nc2ncc(CNc3ccc(C(=O)N[C@@H](CCC(=O)O)C(=O)O)cc3)nc2c(=O)[nH]1` [folates, Folic acid], for which, in experiment [1], the Kd is about 0.1 nM. For the same compound, the Km at reduced folate carrier was about 1 µM.
Regarding YCAREPPTRTFAYWG [EPPT1], the Kd at mucin-1 was 20000 nM.
